Data from US10774051B2, “6-membered heterocyclic derivatives and pharmaceutical composition comprising the same” (Shionogi & Co., Ltd., priority 2015, dated 2020).

These compounds were tested against human P2X7 receptor (Homo sapiens, UniProt Q99572, R270H/Y155H) (assay: Evaluation of human P2X7 receptor inhibitory activity (Yo-Pro uptake, BzATP stimulation, FLIPR TETRA)). Conditions: 1321N1 cells stably expressing human P2X7 receptor; BzATP stimulation, Yo-Pro uptake; read-out: IC50 (antagonistic activity for the human P2X7 receptor).
Format: cell-based
Method in brief: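 Yo-Pro dye uptake triggered by BzATP was monitored by FLIPR in human P2X7-transfected 1321N1 cells (SNP variant) in HEPES-buffered HBSS, pH 7.4-7.5. Compound was dispensed 8 min post-stimulation, then signal read for 20 min; IC50 derived logistically from inhibition of the fluorescence range.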
In the case of `Cc1cc(C)c(Nc2nc(=O)c(C(N)=O)cn2Cc2ccccc2)cc1C` [Compound I-0218], the IC50 is reported as 19 nM.
`COc1cn(Cc2ccc(F)c(Cl)c2)c(Nc2cc3sc(C)nc3cc2C)nc1=O` [Compound I-0033] was tested, and the IC50 was 49 nM.
`COc1cn(Cc2cc(F)cc(F)c2)c(Nc2cccc3c(=O)[nH]ccc23)nc1=O` [Compound I-0652] showed an IC50 of 34 nM.

Same assay, conditions: 1321N1 cells stably expressing human P2X7 receptor; BzATP stimulation, Yo-Pro uptake; read-out: IC50 (antagonistic activity for the human P2X7 receptor), class symbol
For `COc1cc(C)c(Nc2nc(=O)c(OC)cn2Cc2ccc(F)c(Cl)c2)cc1OC` [Compound I-0229], the IC50 was under 10 nM.
Compound `COc1cn(Cc2ccccc2)c(Nc2cccc(N(C)C)c2C)nc1=O` [Compound I-0217] has an IC50 of 10 to 100 nM.
`COc1cc(C)cc(Nc2nc(=O)c(OC)cn2Cc2ccc(F)c(Cl)c2)c1C` [Compound I-0460] was tested, and the IC50 was 10 to 100 nM.
For `COc1cn(Cc2ccccc2)c(Nc2cc(S(=O)(=O)Nc3ccccc3)c(F)cc2C)nc1=O` [Compound I-0415], the IC50 was 500 to 1000 nM.
Compound `CCc1cc(C)c(C)cc1Nc1nc(=O)c(OC)cn1Cc1ccccc1` [Compound I-0265] has an IC50 of under 10 nM.
For `COc1cn(Cc2cc(F)c(F)c(F)c2)c(Nc2ccc(C)cc2C)nc1=O` [Compound I-0570], the IC50 was under 10 nM.
With `CCc1ccc(OC)cc1Nc1nc(=O)c(OC)cn1Cc1ccc(F)c(F)c1` [Compound I-0255] the IC50 was under 10 nM.
Compound `Cc1cccc(Nc2nc(=O)c(F)cn2Cc2ccccc2)c1C` [Compound I-0128] has an IC50 of 10 to 100 nM.
`COc1cn(Cc2ccccc2)c(Nc2cc(C(C)C)ccc2C)nc1=O` [Compound I-0143] gave an IC50 of 10 to 100 nM.
Work on `COc1cn(Cc2ccccc2OC(F)F)c(Nc2cccc(Cl)c2C)nc1=O` [Compound I-0457] yielded an IC50 of under 10 nM.
Work on `COc1cc(C)cc(Nc2nc(=O)c(OC)cn2Cc2ccc(F)c(Cl)c2)c1C` [Compound I-0465] yielded an IC50 of under 10 nM.
`CCc1ccccc1Nc1nc(=O)c(Br)cn1Cc1ccccc1` [Compound I-0107] gave an IC50 of 100 to 500 nM.
With `CCc1ccc(F)cc1Nc1nc(=O)c(OC)cn1Cc1ccc(F)cc1` [Compound I-0565] the IC50 was 100 to 500 nM.
Compound `COc1cn(Cc2cccc(Cl)c2)c(Nc2cc3sc(C)nc3cc2C)nc1=O` [Compound I-0562] has an IC50 of 10 to 100 nM.
Work on `CCc1ccccc1Nc1nc(=O)c(OC)cn1Cc1ccc(F)cc1` [Compound I-0200] yielded an IC50 of 10 to 100 nM.
Work on `COCc1ccccc1Nc1nc(=O)c(OC)cn1Cc1ccc(F)c(Cl)c1` [Compound I-0356] yielded an IC50 of 100 to 500 nM.
With `CCNC(=O)c1cn(Cc2ccccc2)c(Nc2cccc(Cl)c2C)nc1=O` [Compound I-0078] the IC50 was 100 to 500 nM.
In the case of `CCc1ccccc1Nc1nc(=O)c(OC)cn1Cc1cc(F)cc(F)c1` [Compound I-0327], the IC50 is reported as 10 to 100 nM.
With `COc1cn(Cc2cc(F)cc(Cl)c2)c(Nc2cc(C)c(C)cc2C)nc1=O` [Compound I-0381] the IC50 was under 10 nM.
For `COc1cn(Cc2cc(F)c(F)c(F)c2)c(Nc2cc(C)c(C)cc2C)nc1=O` [Compound I-0574], the IC50 was under 10 nM.
For `COc1cn(Cc2ccccc2)c(Nc2cccc(F)c2C)nc1=O` [Compound I-0082], the IC50 was 100 to 500 nM.
Compound `COc1cc(Nc2nc(=O)c(OC)cn2Cc2ccc(F)c(F)c2)c(C)cc1Cl` [Compound I-0535] has an IC50 of under 10 nM.
For `COc1cc(C)cc(Nc2nc(=O)c(OC)cn2Cc2ccc(F)cc2)c1C` [Compound I-0560], the IC50 was under 10 nM.
Work on `COc1cn(Cc2ccccc2COC(F)F)c(Nc2cccc(Cl)c2C)nc1=O` [Compound I-0463] yielded an IC50 of under 10 nM.
Work on `COc1cn(Cc2ccccc2COC(F)F)c(Nc2cccc(Cl)c2C)nc1=O` [Compound I-0458] yielded an IC50 of 10 to 100 nM.
`COc1cn(Cc2cc(F)cc(F)c2)c(Nc2cc(C)c(OC(F)F)cc2C)nc1=O` [Compound I-0355] was tested, and the IC50 was under 10 nM.
Compound `COc1cn(Cc2ccccc2)c(NCc2ccccc2C)nc1=O` [Compound I-0102] has an IC50 of 100 to 500 nM.
`CCc1ccc(Cl)cc1Nc1nc(=O)c(OC)cn1Cc1ccc(F)c(Cl)c1` [Compound I-0389] showed an IC50 of under 10 nM.
`COc1cn(Cc2cc(F)c(F)c(F)c2)c(Nc2cccc(C)c2C)nc1=O` [Compound I-0569] showed an IC50 of under 10 nM.
For `COc1cn(Cc2ccccc2)c(Nc2cccc3[nH]c(C)cc23)nc1=O` [Compound I-0134], the IC50 was 10 to 100 nM.
Work on `CCOc1ccc(C)c(Nc2nc(=O)c(OC)cn2Cc2ccccc2)c1` [Compound I-0455] yielded an IC50 of 10 to 100 nM.
Compound `COc1cn(Cc2cccc(Cl)c2)c(Nc2cc(C)c(OC(F)F)cc2C)nc1=O` [Compound I-0299] has an IC50 of 10 to 100 nM.
Work on `COc1cn(Cc2ccc(F)c(F)c2)c(Nc2cc(C)c(Cl)cc2C)nc1=O` [Compound I-0279] yielded an IC50 of under 10 nM.

Same assay, conditions: antagonistic activity for the human P2X7 receptor; read-out: IC50
In the case of `Cc1c(Nc2nc(=O)c(F)cn2Cc2cc(F)cc(F)c2)ccc2scnc12` [Compound I-1202], the IC50 is reported as under 10 nM.
`Cc1c(Nc2nc(=O)c(F)cn2Cc2cc(F)c(F)c(F)c2)ccc2scnc12` [Compound I-1203] was tested, and the IC50 was under 10 nM.
In the case of `CCc1ccc(F)c(Nc2nc(=O)c(F)cn2Cc2cc(F)c(F)c(F)c2)c1` [Compound I-1218], the IC50 is reported as under 10 nM.
Compound `CCc1cc(F)ccc1Nc1nc(=O)c(F)cn1Cc1cc(F)c(F)c(F)c1` [Compound I-1208] has an IC50 of under 10 nM.
In the case of `COc1ccc(Nc2nc(=O)c(CO)nn2Cc2cc(F)c(F)c(F)c2)c(C)c1` [Compound I-1247], the IC50 is reported as under 10 nM.
`COc1cn(Cc2ccc(F)c(F)c2)c(Nc2cc(Cl)cc3[nH]ccc23)nc1=O` [Compound I-0820] was tested, and the IC50 was 10 to 100 nM.
Compound `COc1cn(Cc2cc(F)cc(Cl)c2)c(Nc2cccc3c(=O)[nH]ccc23)nc1=O` [Compound I-0651] has an IC50 of 10 to 100 nM.
`CCc1cc2c(cc1Nc1nc(=O)c(OC)cn1Cc1ccccc1)OCO2` [Compound I-0687] was tested, and the IC50 was 10 to 100 nM.
Compound `COc1cn(Cc2cc(F)cc(Cl)c2)c(Nc2cc(-c3cccnc3)ccc2C)nc1=O` [Compound I-0765] has an IC50 of 10 to 100 nM.
Work on `CCc1ccc(Nc2nc(=O)c(F)cn2Cc2cc(F)cc(F)c2)c(C)c1` [Compound I-1228] yielded an IC50 of under 10 nM.
Work on `COc1cn(Cc2cc(F)cc(Cl)c2)c(Nc2cc(N3CCOCC3)ccc2C)nc1=O` [Compound I-0737] yielded an IC50 of 10 to 100 nM.
Work on `COc1cc(C)c(Nc2nc(=O)c(F)cn2Cc2cc(F)cc(F)c2)cc1Cl` [Compound I-1174] yielded an IC50 of under 10 nM.
`COc1cn(Cc2cc(F)c(F)c(F)c2)c(Nc2cccc3c(=O)[nH]ccc23)nc1=O` [Compound I-0603] was tested, and the IC50 was 10 to 100 nM.
In the case of `COc1cn(Cc2ccc(F)c(Cl)c2)c(Nc2cc3c(cc2C)OC(F)(F)C(F)(F)O3)nc1=O` [Compound I-0823], the IC50 is reported as 100 to 500 nM.
`COc1cn(Cc2cc(F)cc(F)c2)c(Nc2cc(C)cc3[nH]ccc23)nc1=O` [Compound I-0650] was tested, and the IC50 was 10 to 100 nM.
`COc1cc(C)c(Nc2nc(=O)c(F)cn2Cc2cc(F)c(F)c(F)c2)cc1F` [Compound I-1087] gave an IC50 of under 10 nM.
`C=C1C(c2cc(Nc3nc(=O)c(F)cn3Cc3cc(F)c(F)c(F)c3)c(C)cc2F)=CC=CN1C` [Compound I-1222] showed an IC50 of under 10 nM.
Compound `Cc1cc2[nH]ccc2cc1Nc1nc(=O)c(F)cn1Cc1ccc(F)c(F)c1` [Compound I-1043] has an IC50 of under 10 nM.
Compound `Cc1nc2cc(C)c(Nc3nc(=O)c(F)cn3Cc3cc(F)c(F)c(F)c3)cc2o1` [Compound I-1183] has an IC50 of under 10 nM.
With `O=c1nc(Nc2cccc3cnccc23)n(Cc2cc(F)c(F)c(F)c2)cc1F` [Compound I-1096] the IC50 was 10 to 100 nM.
In the case of `COCc1cc(=O)nc(Nc2cc(OC)c(OC)cc2C)n1Cc1cc(F)cc(F)c1` [Compound I-1142], the IC50 is reported as 10 to 100 nM.
In the case of `COc1cc(C)c(Nc2nc(=O)cnn2Cc2cc(F)c(F)c(F)c2)cc1Cl` [Compound I-1278], the IC50 is reported as under 10 nM.
For `CCOc1ccc(Nc2nc(=O)c(F)cn2Cc2ccc(F)c(Cl)c2)c(C)c1` [Compound I-1035], the IC50 was 10 to 100 nM.
`Cc1ccc(Cl)cc1Nc1nc(=O)c(F)cn1Cc1cc(F)c(F)c(F)c1` [Compound I-1209] showed an IC50 of under 10 nM.
`Cc1cc(OC(F)F)ccc1Nc1nc(=O)c(F)cn1Cc1cc(F)c(F)c(F)c1` [Compound I-1039] showed an IC50 of 10 to 100 nM.
In the case of `COc1cn(Cc2ccccc2)c(Nc2cc3ncccc3cc2C)nc1=O` [Compound I-0770], the IC50 is reported as 100 to 500 nM.
Compound `COc1cn(Cc2ccc(F)c(Cl)c2)c(Nc2cc3c(cc2C)COC3)nc1=O` [Compound I-0906] has an IC50 of 10 to 100 nM.
For `C#Cc1cc(Nc2nc(=O)c(OC)cn2Cc2ccc(F)c(Cl)c2)c(C)cc1F` [Compound I-0916], the IC50 was 10 to 100 nM.
Compound `COc1ccc(Nc2nc(=O)c(OC)cn2Cc2cc(F)c(F)c(F)c2)c(Cl)c1` [Compound I-0847] has an IC50 of under 10 nM.
With `Cc1cc(C)c(Nc2nc(=O)c(F)cn2Cc2cc(F)c(F)c(F)c2)cc1F` [Compound I-1238] the IC50 was under 10 nM.
For `Cc1cc2c(cc1Nc1nc(=O)c(F)cn1Cc1cc(F)c(F)c(F)c1)CCO2` [Compound I-1046], the IC50 was under 10 nM.
`COc1cn(Cc2cc(F)c(F)c(F)c2)c(Nc2c(C)ccc(C)c2F)nc1=O` [Compound I-0929] gave an IC50 of under 10 nM.
`COc1cn(Cc2ccc(F)c(F)c2)c(Nc2cc(N3CCOCC3)ccc2C)nc1=O` [Compound I-0736] was tested, and the IC50 was 10 to 100 nM.
